Key:
[1] = tested on: ABUTH: velvetleaf (Abutilon theophrasti); experiment: Post-Emergent Test I herbicidal activity; format: in vivo; conditions: Abutilon theophrasti, post-emergence, 336 h, read-out: Visual Growth Reduction (%)-14 Days after Application ABUTH; for pest or weed control at 280 g/ha: Table 3, 280 g ai/ha; for pest or weed control at 70 g/ha: Table 3, 70 g ai/ha; for pest or weed control at 140 g/ha: Table 3, 140 g ai/ha
Procedure, shortened: (§1)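 Greenhouse plants at first-second true leaf stage sprayed post-emergence by track sprayer at 187 L/ha with compound in acetone/DMSO/water/isopropanol carrier with crop oil concentrate and Triton X-155, top rate plus ½× to 1/16× serial rates. Injury scored visually at 14 d, 0-100% versus untreated plants; GR20, GR50, GR80 from probit analysis.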

[2] = tested on: CYPES: yellow nutsedge (Cyperus esculentus); experiment: Post-Emergent Test I herbicidal activity; format: in vivo; conditions: post-emergence, 336 h, read-out: Visual Growth Reduction (%)-14 Days after Application CYPES; for pest or weed control at 280 g/ha: Table 3, 280 g ai/ha; for pest or weed control at 70 g/ha: Table 3, 70 g ai/ha; for pest or weed control at 140 g/ha: Table 3, 140 g ai/ha
Procedure, shortened: as §1

[3] = tested on: ECHCG: barnyardgrass (Echinochloa crus-galli); experiment: Post-Emergent Test I herbicidal activity; format: in vivo; conditions: post-emergence, 336 h, read-out: Visual Growth Reduction (%)-14 Days after Application ECHCG; for pest or weed control at 280 g/ha: Table 3, 280 g ai/ha; for pest or weed control at 70 g/ha: Table 3, 70 g ai/ha; for pest or weed control at 140 g/ha: Table 3, 140 g ai/ha
Procedure, shortened: (§2)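 Greenhouse-grown seedlings (peat-based mix, pH 6.0–6.8; ~15 h photoperiod, 23–29 °C day) were sprayed post-emergence at first/second true-leaf stage with compound in acetone/DMSO/aqueous crop-oil–surfactant carrier at 187 L/ha, using a twofold rate series. Injury was scored visually after 14 d (0–100%); GR20/GR50/GR80 derived by probit analysis.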

[4] = tested on: CHEAL: lambsquarters (Chenopodium album); experiment: Post-Emergent Test I herbicidal activity; format: in vivo; conditions: Chenopodium album, post-emergence, 336 h, read-out: Visual Growth Reduction (%)-14 Days after Application CHEAL; for pest or weed control at 280 g/ha: Table 3, 280 g ai/ha; for pest or weed control at 70 g/ha: Table 3, 70 g ai/ha; for pest or weed control at 140 g/ha: Table 3, 140 g ai/ha
Procedure, shortened: as §1

[5] = tested on: ORYSA: rice (Oryza sativa); experiment: Post-Emergent Test I herbicidal activity; format: in vivo; conditions: post-emergence, 336 h, read-out: Visual Growth Reduction (%)-14 Days after Application ORYSA; for pest or weed control at 280 g/ha: Table 3, 280 g ai/ha; for pest or weed control at 70 g/ha: Table 3, 70 g ai/ha; for pest or weed control at 140 g/ha: Table 3, 140 g ai/ha
Procedure, shortened: as §2

[6] = tested on: ZEAMX: corn (Zea mays); experiment: Post-Emergent Test I herbicidal activity; format: in vivo; conditions: Zea mays, post-emergence, 336 h, read-out: Visual Growth Reduction (%)-14 Days after Application ZEAMX; for pest or weed control at 280 g/ha: Table 3, 280 g ai/ha; for pest or weed control at 70 g/ha: Table 3, 70 g ai/ha; for pest or weed control at 140 g/ha: Table 3, 140 g ai/ha
Procedure, shortened: as §1

[7] = tested on: EPHHL: wild poinsettia (Euphorbia heterophylla); experiment: Post-Emergent Test I herbicidal activity; format: in vivo; conditions: post-emergence, 336 h, read-out: Visual Growth Reduction (%)-14 Days after Application EPHHL; for pest or weed control at 280 g/ha: Table 3, 280 g ai/ha; for pest or weed control at 70 g/ha: Table 3, 70 g ai/ha; for pest or weed control at 140 g/ha: Table 3, 140 g ai/ha
Procedure, shortened: as §1

SMILES | melting point | pest or weed control at 140 g/ha [1] | pest or weed control at 140 g/ha [2] | pest or weed control at 140 g/ha [3] | pest or weed control at 140 g/ha [4] | pest or weed control at 140 g/ha [5] | pest or weed control at 140 g/ha [6] | pest or weed control at 140 g/ha [7] | also measured
COC(=O)c1nc(Cl)c(Cl)c(N)c1OC [Compound 2, methyl 4-amino-5,6-dichloro-3-methoxypicolinate] | 119 to 121 °C |  |  |  |  |  |  |  | pest or weed control at 280 g/ha [1]: 90%; pest or weed control at 280 g/ha [2]: 0%; pest or weed control at 280 g/ha [3]: 0%; pest or weed control at 280 g/ha [4]: 90%; pest or weed control at 280 g/ha [5]: 0%; pest or weed control at 280 g/ha [6]: 0%; pest or weed control at 280 g/ha [7]: 95%
COC(=O)c1nc(-c2ccc(Cl)c(OC)c2F)cc(N)c1OC [Compound 5, methyl 4-amino-6-(4-chloro-2-fluoro-3-methoxyphenyl)-3-methoxypicolinate] | 114 to 118 °C |  |  |  |  |  |  |  | pest or weed control at 70 g/ha [1]: 100%; pest or weed control at 70 g/ha [2]: 20%; pest or weed control at 70 g/ha [3]: 80%; pest or weed control at 70 g/ha [4]: 100%; pest or weed control at 70 g/ha [5]: 0%; pest or weed control at 70 g/ha [6]: 60%; pest or weed control at 70 g/ha [7]: 100%
CCc1nc(C(=O)OC)c(OC)c(N)c1F [Compound 13, methyl 4-amino-6-ethyl-5-fluoro-3-methoxypicolinate] | 110.5 to 113 °C |  |  |  |  |  |  |  | pest or weed control at 280 g/ha [1]: 0%; pest or weed control at 280 g/ha [2]: 0%; pest or weed control at 280 g/ha [3]: 0%; pest or weed control at 280 g/ha [4]: 90%; pest or weed control at 280 g/ha [5]: 0%; pest or weed control at 280 g/ha [6]: 0%; pest or weed control at 280 g/ha [7]: 70%
COC(=O)c1nc(-c2cc(F)c(Br)cc2F)c(F)c(N)c1OC [Compound 20] | 116 to 118 °C |  |  |  |  |  |  |  | pest or weed control at 70 g/ha [1]: 85%; pest or weed control at 70 g/ha [2]: 50%; pest or weed control at 70 g/ha [3]: 80%; pest or weed control at 70 g/ha [4]: 100%; pest or weed control at 70 g/ha [5]: 0%; pest or weed control at 70 g/ha [6]: 80%; pest or weed control at 70 g/ha [7]: 100%
COC(=O)c1nc(-c2cc(F)c(I)cc2F)c(F)c(N)c1OC [Compound 25] | 127 to 129 °C | 70% | 100% | 85% | 90% | 0% | 70% | 100% | 
COc1c(C(=O)O)nc(-c2ccc(I)c(F)c2F)c(F)c1N [Compound 28] | 145 to 147 °C |  |  |  |  |  |  |  | pest or weed control at 70 g/ha [1]: 70%; pest or weed control at 70 g/ha [2]: 40%; pest or weed control at 70 g/ha [3]: 80%; pest or weed control at 70 g/ha [4]: 100%; pest or weed control at 70 g/ha [5]: 5%; pest or weed control at 70 g/ha [6]: 70%; pest or weed control at 70 g/ha [7]: 100%
COC(=O)c1nc(-c2ccc(Cl)cc2)c(F)c(N)c1OC [Compound 31, methyl 4-amino-6-(4-chlorophenyl)-5-fluoro-3-methoxypicolinate] | 93 to 94 °C | 100% | 100% | 95% | 100% | 15% | 85% | 100% | 
COC(=O)c1nc(-c2ccc(Cl)c(F)c2)c(F)c(N)c1OC [Compound 32] | 109 to 110 °C | 95% | 100% | 90% | 100% | 0% | 75% | 100% | 
COC(=O)c1nc(-c2ccc(C(F)(F)F)cc2)c(F)c(N)c1OC [Compound 35] | 97 to 99 °C | 75% | 100% | 80% | 100% | 0% | 70% | 100% | 
COC(=O)c1nc(-c2ccc(F)cc2)c(F)c(N)c1OC [Compound 36] | 141 to 143 °C | 100% | 100% | 0% | 100% | 0% | 60% | 100% | 
COC(=O)c1nc(-c2ccc3c(c2)OCO3)c(F)c(N)c1OC [Compound 37] | 110 to 112 °C | 55% | 100% | 100% | 100% | 0% | 75% | 100% | 
COC(=O)c1nc(-c2ccc(C(F)(F)F)c(F)c2F)c(F)c(N)c1OC [Compound 38] | 139 to 141 °C | 85% | 50% | 10% | 90% | 0% | 75% | 100% | 
COC(=O)c1nc(-c2cc(F)c(Cl)cc2F)c(F)c(N)c1OC [Compound 39] | 120 to 123 °C |  |  |  |  |  |  |  | pest or weed control at 70 g/ha [1]: 80%; pest or weed control at 70 g/ha [2]: 100%; pest or weed control at 70 g/ha [3]: 80%; pest or weed control at 70 g/ha [4]: 100%; pest or weed control at 70 g/ha [5]: 0%; pest or weed control at 70 g/ha [6]: 75%; pest or weed control at 70 g/ha [7]: 100%
COC(=O)c1nc(-c2ccc(C(F)(F)F)nc2)c(F)c(N)c1OC [Compound 40] | 130 to 132 °C | 80% | 100% | 50% | 100% | 0% | 70% | 100% | 
COC(=O)c1nc(-c2ccc(Cl)c(N(C)C)c2F)c(F)c(N)c1OC [Compound 43] | 113 to 115 °C | 90% | 50% | 80% | 100% | 0% | 70% | 100% | 
COC(=O)c1nc(-c2ccc(Cl)cc2)c(Cl)c(N)c1OC [Compound 44, methyl 4-amino-5-chloro-6-(4-chlorophenyl)-3-methoxypicolinate] | 139 to 141 °C | 50% | 100% | 0% | 100% | 0% | 15% | 0% | 
COc1c(C(=O)O)nc(-c2ccc(F)cc2)c(F)c1N [Compound 52] | 149 to 151 °C |  | 100% | 60% | 100% | 0% | 50% | 100% | 
CNc1cc(-c2ccc(Cl)cc2)nc(C(=O)OC)c1N [Compound 86, Methyl 3-amino-6-(4-chlorophenyl)-4-(methylamino)picolinate] | 178 to 200 °C |  |  |  |  |  |  |  | pest or weed control at 280 g/ha [1]: 40%; pest or weed control at 280 g/ha [2]: 0%; pest or weed control at 280 g/ha [4]: 95%; pest or weed control at 280 g/ha [5]: 0%; pest or weed control at 280 g/ha [6]: 0%; pest or weed control at 280 g/ha [7]: 50%
